Results published in patent US8552006B2, “Modulators of cystic fibrosis transmembrane conductance regulator” (Vertex Pharmaceuticals Incorporated, priority 2007, dated 2013).

Target: T1, ΔF508-CFTR (Homo sapiens, UniProt P13569, DEL508-508)
T1 construct: expressed in transfected cells
Assay: Membrane potential optical assay for potentiators of ΔF508-CFTR (double-addition HTS, FLIPR III)
Assay type: cell-based
Conditions: for Emax: 100% efficacy is the maximum response obtained with 4-methyl-2-(5-phenyl-1H-pyrazol-3-yl)phenol; for EC50: temperature-corrected ΔF508 CFTR NIH 3T3 cells, potentiation with forskolin activation
Source text: Membrane Potential Optical Methods for Assaying ΔF508-CFTR Modulation Properties of Compounds
The assay utilizes fluorescent voltage sensing dyes to measure changes in membrane potential using a fluorescent plate reader (e.g., FLIPR III, Molecular Devices, Inc.) as a readout for increase in functional ΔF508-CFTR in NIH 3T3 cells. The driving force for the response is the creation of a chloride ion gradient in conjunction with channel activation by a single liquid addition step after the cells have previously been treated with compounds and subsequently loaded with a voltage sensing dye.
To identify potentiators of ΔF508-CFTR, a double-addition HTS assay format was developed. This HTS assay utilizes fluorescent voltage sensing dyes to measure changes in membrane potential on the FLIPR III as a measurement for increase in gating (conductance) of ΔF508 CFTR in temperature-corrected ΔF508 CFTR NIH 3T3 cells. The driving force for the response is a Cl^− ion gradient in conjunction with channel activation with forskolin in a single liquid addition step using a fluoresecent plate reader such as FLIPR III after the cells have previously been treated with potentiator compounds (or DMSO vehicle control) and subsequently loaded with a redistribution dye.
Bath Solution #1: (in mM) NaCl 160, KCl 4.5, CaCl2 2, MgCl2 1, HEPES 10, pH 7.4 with NaOH.
Chloride-Free Bath Solution: Chloride Salts in Bath Solution #1 are Substituted with Gluconate Salts.
NIH3T3 mouse fibroblasts stably expressing ΔF508-CFTR are used for optical measurements of membrane potential. The cells are maintained at 37° C. in 5% CO2 and 90% humidity in Dulbecco's modified Eagle's medium supplemented with 2 mM glutamine, 10% fetal bovine serum, 1×NEAA, β-ME, 1× pen/strep, and 25 mM HEPES in 175 cm^2 culture flasks. For all optical assays, the cells were seeded at ˜20,000/well in 384-well matrigel-coated plates and cultured for 2 hrs at 37° C. before culturing at 27° C. for 24 hrs. for the potentiator assay. For the correction assays, the cells are cultured at 27° C. or 37° C. with and without compounds for 16-24 hours. Electrophysiological Assays for assaying ΔF508-CFTR modulation properties of compounds.

T1 sequence (P13569 with tags, fused parts or gaps DEL508-508): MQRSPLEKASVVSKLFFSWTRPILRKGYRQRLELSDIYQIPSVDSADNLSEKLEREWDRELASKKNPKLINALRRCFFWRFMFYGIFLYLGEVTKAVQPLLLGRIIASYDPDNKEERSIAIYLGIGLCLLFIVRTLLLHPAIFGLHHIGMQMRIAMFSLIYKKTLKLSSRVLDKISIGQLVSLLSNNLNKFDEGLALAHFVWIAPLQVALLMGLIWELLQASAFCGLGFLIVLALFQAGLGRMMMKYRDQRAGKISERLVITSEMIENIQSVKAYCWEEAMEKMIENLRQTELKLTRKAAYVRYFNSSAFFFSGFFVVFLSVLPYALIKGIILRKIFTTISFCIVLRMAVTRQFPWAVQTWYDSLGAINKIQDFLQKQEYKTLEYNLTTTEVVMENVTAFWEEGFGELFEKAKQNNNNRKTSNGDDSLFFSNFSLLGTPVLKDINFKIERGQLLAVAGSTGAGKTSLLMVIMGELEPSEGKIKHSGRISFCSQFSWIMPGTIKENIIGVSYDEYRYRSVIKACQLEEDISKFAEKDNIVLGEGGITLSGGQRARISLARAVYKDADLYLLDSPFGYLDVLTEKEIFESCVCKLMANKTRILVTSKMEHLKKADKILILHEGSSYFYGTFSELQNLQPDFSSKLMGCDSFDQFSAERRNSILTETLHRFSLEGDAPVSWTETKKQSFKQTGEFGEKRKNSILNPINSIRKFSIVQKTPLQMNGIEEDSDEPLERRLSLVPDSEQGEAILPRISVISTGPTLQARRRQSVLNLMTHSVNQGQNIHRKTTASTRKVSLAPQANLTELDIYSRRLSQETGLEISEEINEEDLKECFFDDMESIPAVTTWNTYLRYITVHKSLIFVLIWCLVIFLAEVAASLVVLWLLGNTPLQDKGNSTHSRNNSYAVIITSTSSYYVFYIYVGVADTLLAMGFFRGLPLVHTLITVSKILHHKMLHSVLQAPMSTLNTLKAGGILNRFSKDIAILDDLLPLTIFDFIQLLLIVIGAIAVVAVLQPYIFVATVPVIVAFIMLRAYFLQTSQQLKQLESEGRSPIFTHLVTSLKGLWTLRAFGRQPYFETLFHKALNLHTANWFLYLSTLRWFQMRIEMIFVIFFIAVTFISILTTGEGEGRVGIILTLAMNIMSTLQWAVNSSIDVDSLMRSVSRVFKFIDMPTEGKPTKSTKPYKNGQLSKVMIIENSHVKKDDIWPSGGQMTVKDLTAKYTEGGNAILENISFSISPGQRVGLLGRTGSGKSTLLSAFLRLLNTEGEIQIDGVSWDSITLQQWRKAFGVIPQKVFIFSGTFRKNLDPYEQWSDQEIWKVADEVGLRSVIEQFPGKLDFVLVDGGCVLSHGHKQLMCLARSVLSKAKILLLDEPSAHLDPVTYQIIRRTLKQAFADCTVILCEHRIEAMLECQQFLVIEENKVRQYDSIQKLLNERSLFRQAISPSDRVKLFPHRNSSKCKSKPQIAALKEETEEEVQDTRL

| SMILES | Emax | EC50 |
| --- | --- | --- |
| Cc1cc2[nH]cc(C(=O)Nc3cc(O)c(C4CCCC4)cc3C#N)c(=O)n2c1 [Compound 19] | 25 to 100% | < 5 µM |
| Cc1cc2[nH]cc(C(=O)Nc3ccc(N4CCC(C)(C)C4)cc3C(F)(F)F)c(=O)n2c1 [Compound 3] | 25 to 100% | < 5 µM |
| CCc1cc2[nH]cc(C(=O)Nc3cc(O)c(C(C)(C)C)cc3C(C)(C)C)c(=O)n2c1 [Compound 14, N-(2,4-di-tert-butyl-5-hydroxyphenyl)-7-ethyl-4-oxo-1,4-dihydropyrrolo[1,2-a]pyrimidine-3-carboxamide] | 25 to 100% | < 5 µM |
| Cc1cc2[nH]cc(C(=O)Nc3cc(O)c(C4CCCC4)cc3C)c(=O)n2c1 [Compound 18] | 25 to 100% | < 5 µM |
| CCc1cc2[nH]cc(C(=O)Nc3cc4[nH]ccc4cc3C(F)(F)F)c(=O)n2c1 [Compound 11] | 25 to 100% | < 5 µM |
| Cc1cc2[nH]cc(C(=O)Nc3cc(O)c(C4(C)CCCCC4)cc3F)c(=O)n2c1 [Compound 15] | 25 to 100% | < 5 µM |
| Cc1cc2[nH]cc(C(=O)Nc3ccc4cc[nH]c4c3)c(=O)n2n1 [Compound 10] | 25 to 100% | > 20 µM |
| O=C(Nc1cc2[nH]ccc2cc1C(F)(F)F)c1c[nH]c2ccnn2c1=O [Compound 8] | 25 to 100% | 5 to 20 µM |
| CC(C)(C)c1cc(C(C)(C)C)c(NC(=O)c2c[nH]c3ccnn3c2=O)cc1O [Compound 5, N-(2,4-di-tert-butyl-5-hydroxyphenyl)-7-oxo-4,7-dihydropyrazolo[1,5-a]pyrimidine-6-carboxamide] | 25 to 100% | < 5 µM |

Other lines, results leading:

| Emax | EC50 | SMILES |
| --- | --- | --- |
| 25 to 100% | < 5 µM | Cc1cc2[nH]cc(C(=O)Nc3cc4[nH]ccc4cc3C(C)(C)C)c(=O)n2n1 [Compound 4] |
| 25 to 100% | < 5 µM | CC(C)(C)c1cc2cc[nH]c2cc1NC(=O)c1c[nH]c2ccnn2c1=O [Compound 6] |
| 25 to 100% | < 5 µM | Cc1cc2[nH]cc(C(=O)Nc3cc(O)c(C4CCCC4)cc3C(F)(F)F)c(=O)n2c1 [Compound 16] |
| 25 to 100% | 5 to 20 µM | O=C(Nc1ccc(N2CCCC2)cc1C(F)(F)F)c1c[nH]c2ccnn2c1=O [Compound 13] |
| 25 to 100% | < 5 µM | CCc1cc2[nH]cc(C(=O)Nc3ccc4c(C(C)(C)C)c[nH]c4c3)c(=O)n2c1 [Compound 9] |
| > 100% | < 5 µM | CC(C)(C)c1c[nH]c2cc(NC(=O)c3c[nH]c4ccnn4c3=O)ccc12 [Compound 2] |
| 25 to 100% | 5 to 20 µM | CCc1cc2[nH]cc(C(=O)Nc3cc(O)c(C4(C)CCCCC4)cc3F)c(=O)n2c1 [Compound 12] |
| 25 to 100% | < 5 µM | Cc1cc2[nH]cc(C(=O)Nc3cc(O)c(C(C)(C)C)cc3C(C)(C)C)c(=O)n2n1 [Compound 1] |
| 25 to 100% | < 5 µM | CCc1cc2[nH]cc(C(=O)Nc3ccc4c(C(F)(F)F)c[nH]c4c3)c(=O)n2c1 [Compound 7] |
| 25 to 100% | < 5 µM | Cc1cc2[nH]cc(C(=O)Nc3ccc4c(C(F)(F)F)c[nH]c4c3)c(=O)n2c1 [Compound 17] |
